Test [1] deals with aged C57Bl/6JRj mice. The experiment in a line: Body composition, muscle mass and TA muscle histology in aged mice. The test is classed as in vivo, mouse. The procedure: To examine whether a causal relationship could underlie the correlation between SphPC1 and muscle mass and function, it was tested whether inhibition of sphingolipid de novo biosynthesis pathway could protect against age-related muscle dysfunction. Aged (18-month-old) C57Bl/6JRj mice were treated for 5 months on chow diet with myriocin, a specific inhibitor of SPT, the first and rate-limiting enzyme of the sphingolipid de novo synthesis pathway, and whose expression in skeletal muscle was negatively correlated with muscular fitness in BXDs.
Animals. Young (2-month-old) and aged (18-month-old) C57Bl/6JRj mice were purchased from Janvier Labs. EchoMRI measuring the fat and lean body mass, were measured before and after the treatment. The dose of myriocin was 0.4 mg/kg/3 times a week. Myriocin (Enzo Life Sciences, Farmingdale, N.Y.) was first dissolved in DMSO which was then mixed with PBS so that each mouse received 1.5 μL DMSO per injection. Animals were fed on a standard chow diet. All animals were housed in micro-isolator cages in a room illuminated from 7:00 AM to 7:00 PM with ad libitum access to diet and water. All the animal experiments are authorized by animal license 2890.1 and 3341 in Canton of Vaud, Switzerland.
Histology. TA muscles were harvested from anesthetized mice, and immediately embedded in Thermo Scientific™ Shandon™ Cryomatrix™ and frozen in isopentane, cooled in liquid nitrogen, for 1 min before being transferred to dry ice and stored at −80° C. 8 μm cryosections were incubated in 4% PFA for 15 min, washed three times for 10 min with PBS, incubated for antigen retrieval in pH 6.0 citrate buffer for 10 min at 95° C. […] Microscopy images of fluorescence from muscle fibers were analyzed using the ImageJ software. Centralized nuclei percent, minimal Feret diameter and cross-sectional area in TA muscles were determined using the ImageJ software quantification of laminin, dystrophin, and DAPI-stained muscle images from VS120-S6-W slides scanner (Olympus). […] The mean cross-sectional area of muscle fibers was calculated as the average cross-sectional area of 2,000 fibers per from sample. 7-8 mouse samples per condition were used for histological quantification of donor mice. The eMyHC quantification is expressed as proportion of eMyHC positive signal over total TA cross sectional area. Following MuSC injection in CTX injected recipient mice, inflammation representing the regenerative stage of muscle was quantified by ImageJ software as proportion of inflammatory area over total area of the TA muscle cross section. The PAX7-positive cells were quantified as the average number of cells per field of more than 30 randomly chosen fields from a mouse TA. For each quantification, 3 or more mice were used.

The next test deals with C2C12 myoblasts. The test can be described thus: C2C12 myoblast differentiation. The conditions noted are these: C2C12, 30 μM myriocin vs DMSO. The test is classed as cell-based, mouse. The procedure:
Cell culture and cell transfection. The C2C12 mouse myoblast cell line was obtained from the American Type Culture Collection (CRL-1772™). C2C12 cells or clones were cultured in growth medium consisting of Dulbecco's modified Eagle's medium (Gibco, 41966-029), 20% Fetal Bovine Serum (Gibco, 10270-106) and 100 U/mL penicillin and […] streptomycin (Gibco, 15140-122). To induce differentiation, FBS was substituted with 2% horse serum (Gibco, 16050-122). Trypsin-EDTA 0.05% (GIBCO, 25300-062) was used to detach cells. Human skeletal muscle cells were obtained from Lonza (SkMC, #CC-2561) and cultured in growth medium consisting of DMEM/F12 (Gibco, 10565018), 20% Fetal Bovine Serum (Gibco, 10270-106) and 100 U/mL penicillin and […] streptomycin (Gibco, 15140-122). To induce differentiation, FBS was reduced to 2% and kept in culture. All cells were maintained at 37° C. with 5% CO2. Cell transfections were done using TransiT (Mirus) according to the manufacturer's protocol with a 3:1 ratio of transfection agent to DNA. C2C12 cells were grown confluent, and 30 μM myriocin or DMSO was added and cells were kept in growth medium for another 3 days. Sptlc1 clones were plated to reach confluency simultaneously and were kept in growth medium for 3 days before using them for immunocytochemistry or RNA isolation. The concentration of myriocin in medium for all experiments was 30 μM. A stock solution of 20 mM myriocin in DMSO was used dissolve myriocin, and a corresponding volume of DMSO without myriocin was used as control.
RNA isolation and real time qPCR. RNA was isolated using the RNeasy Mini kit (Qiagen, 74106) and reverse transcribed with the High-Capacity-RNA-to-cDNA kit (Thermo Fisher, 4387406). Gene expression was measured by qPCR using the Power SybrGreen Master mix (Thermo Fisher, 4367659). All quantitative polymerase chain reaction (PCR) results were calculated relative to the mean of the housekeeping gene Gapdh. The average of two technical replicates was used for each biological data point.
Immunocytochemistry. C2C12 cells cultured on a sterilized cover slip in 6-well plates (Greiner bio-one, CELLSTAR, 657160) were fixed in Fixx solution (Thermo Scientific, 9990244) for 15 min and permeabilized in 0.1% Triton X-100 (Amresco, 0694) solution for 15 min at room temperature. Cells were blocked in 3% BSA for 1 h at room temperature to avoid unspecific antibody binding and then incubated with primary antibody over night at 4° C. with gentle shaking. […] The immunofluorescence images were acquired using either fluorescence or confocal microscopy. The myofusion index was calculated as the ratio of nuclei within myotubes to total nuclei. The myotube diameter was measured for 8 myotubes per image using ImageJ. Myotube area was calculated as the total area covered by myotubes.

The test system of test [2] is aged C57Bl/6JRj mice. The experiment in a line: Oral glucose tolerance test in aged mice. It counts as in vivo, mouse. The note with it: aged chow-fed myriocin treated mice. The source says: Frailty is associated with multimorbidity, including diabetes.

Entries after “also recorded” stand apart in the source; their conditions may differ.

For the compound `CCCCCCC(=O)CCCCCCC=CCC(O)C(O)C(N)(CO)C(=O)O` (stereo not drawn) [myriocin, 2-Amino-3,4-dihydroxy-2-(hydroxymethyl)-14-oxoicos-6-enoic acid], the lean body mass result in the test with aged C57Bl/6JRj mice [1] (myriocin 0.4 mg/kg i.p. 3 times per week, 5 months, EchoMRI before and after treatment) is “delayed age-dependent decline; also recorded: higher”. Moreover, in the test on aged C57Bl/6JRj mice [1] (myriocin 5 months vs DMSO), the “cross-sectional area of muscle fibers (TA)” value was “larger” and the “number of centralized nuclei in TA muscle” value is listed as “reduced number”. Also, the “gastrocnemius and TA mass” value in the test with aged C57Bl/6JRj mice [1] (myriocin 5 months vs DMSO treated controls) is recorded as “greater; also recorded: higher”. In the test with C2C12 myoblasts, the fusion index entry is listed as “greater”; the myoblast differentiation result is given as “accelerated”; the “myogenic transcript signature (Myog, Myh4, Myh1)” value was “upregulation”; the myotube area entry is recorded as “greater”. The glucose tolerance result in the test with aged C57Bl/6JRj mice [2] is “improved”.

For the origin of these results see patent US20220288004A1, “TREATMENT AND PREVENTION OF AGING RELATED-DISEASE AND/OR AGING BY THE INHIBITION OF SPHINGOLIPIDS” (ECOLE POLYTECHNIQUE FEDERALE DE LAUSANNE (EPFL), priority 2019, published 2022).
